Experimental data reported in article PMC4721142, “Randomized controlled studies on the efficacy of antiarthritic agents in inhibiting cartilage degeneration and pain associated with progression of osteoarthritis in the rat” (Arthritis Research & Therapy, 2016).
Where “and” joins values, the source holds several entries; their conditions need not be identical. Equal values may be shown once.

Assays:
[1] = tested on: MIA rat model of OA; assay: MIA trial 3 digital Randall-Selitto test (weekly i.a. clonidine 4.5 μg, tacrolimus 30 ng, fluocinolone 15 ng, meloxicam 100 μg, tranilast 500 ng, TH 150 μg; clonidine 100 μg/kg s.c.); type: in vivo
Description: The digital Randall-Selitto (dRS) test is said to be a reliable and repeatable measure of neuropathic, bone, and inflammatory pain behavior in several different models, including those of arthritic or joint pain [29, 31, 32]. Baseline and posttreatment values were evaluated using a dRS test device (IITC Life Science, Woodland Hills, CA, USA). Animals were allowed to acclimate to the testing room before all experimentation and for a minimum of 30 minutes before testing. To ensure that their hind limbs were accessible, the animals were gently suspended in a restraint sling. The joint compression threshold was measured once at each time point for the ipsilateral and contralateral knee joints. Pressure was applied gradually over approximately 10 seconds to the medial and lateral aspects of the knee joint. Measurements were taken from the first observed behavior of vocalization, struggle, or withdrawal. A cutoff value of 600 g was used to prevent injury to the animal.
Following isoflurane anesthesia, 50 μl (2 mg) of MIA was injected into the synovial space of the left knee. Animals were randomly assigned to groups, and pain behavior was assessed 7, 14, 21, and 28 days following MIA injection and intervention using WB with the Stoelting incapacitance meter (trial 1) or the dRS test (trials 2 and 3). […] Animals received MIA treatment and then saline control or therapeutic. […] Histopathology was performed at each time point and at study termination. All studies were conducted in accordance with the International Association for the Study of Pain Guidelines and were approved by the Algos Therapeutics, Inc. Institutional Animal Care and Use Committee (IACUC) before initiation. Those running the studies were blind to the treatments. See Additional file 1 for further details. […]
struggle or withdrawal. A cut-off value of 600 g was used to prevent injury to the animal. The mean and standard error of the mean (SEM) were determined for each treatment group.
Statistical significance was assigned as p ≤ 0.05. The stability of the vehicle group over time was assessed on each testing day (Days 7, 14, 21, and 28) using repeated measures one-way analysis of variance (ANOVA) comparing joint compression thresholds at each experimental time point on a given testing day versus that testing day’s pre-treatment value. Osteoarthritis-related pain in the vehicle group was estimated at each time point on each testing day by comparing ipsilateral (injured) to contralateral (normal) joint compression thresholds using paired t-tests. The progression of osteoarthritis-related pain in the vehicle group was estimated by comparing pre-treatment joint compression thresholds on each testing day versus pre-MIA measurements using repeated measures one-way ANOVA. […]
thresholds at each experimental time point on a given testing day with vehicle treated animals using an unpaired t-test. The acute effect of Tacrolimus was analyzed by comparing joint compression thresholds at each time point on a given testing day with the corresponding pre-treatment baseline values using repeated measures one-way ANOVA and compared to vehicle treated animals using […]
values using repeated measures one-way ANOVA. Chronic effects were analyzed by comparing pre-treatment joint compression thresholds on each testing day versus the appropriate Day 7 pre-treatment values using repeated measures one-way ANOVA and by comparing pre-treatment joint compression thresholds with vehicle treated animals on each testing day using an unpaired t-test or one-way ANOVA. Day 7 pre-treatment joint compression thresholds between all groups were assessed using one-way ANOVA. The Dunnett’s multiple comparison post hoc test was used when […]
dosing were housed three per cage. Animals had free access to food and water and were maintained […]
The animal colony was maintained at approximately 21 °C. All experiments were conducted in accordance with the International Association for the Study of Pain Guidelines.

[2] = tested on: Normal human articular chondrocytes; assay: Cytotoxicity to chondrogenic pellets (CellTiter-Blue)
[3] = tested on: MIA rat model of OA; assay: MIA trial 3 histopathology (same doses as dRS test); type: in vivo; design: key to Cartilage matrix damage score: 5-point cartilage matrix score; key to Mean of all cartilage loss: approximate % loss, mean of four articular surfaces; Subchondral bone sclerosis: scale not given here
Description: For MIA trial 3, joints were fixed and toluidine blue–stained sections of the rat knees were comprehensively analyzed from test and control subjects as detailed in Additional file 1. Briefly, a 5-point cartilage matrix score was derived based upon (1) approximate percentage of total loss of articular chondrocytes for each of four articular surfaces, (2) estimated proteoglycan loss (via Safranin O staining), and (3) loss of interstitial matrix. Chondrocyte necrosis and proteolytic degeneration of the femurs were scored on a 5-point scale as in trial 1. A femoral cartilage degeneration score and a three-zone sum of the tibial cartilage degeneration scores (mean of three levels) were also summed to create a total cartilage degeneration score. The mean osteophyte score for each joint was added to this value to create a total joint score with matrix. Other parameters assessed included synovial membrane inflammation and proliferation. Representative images from each group were also collected (see, e.g., Fig. 4 and Additional file 1: Fig. S55, Trial 3). […]
Hawes, APS, Pathologist). Treatments were masked during the assessment. Chondrocyte necrosis and proteolytic degeneration of the femurs were scored on a 5 point scale with 0 = None; 1 = <10%; […]
For the histopathology of the MIA model in Trial 3, completed by Bolder BioPATH (and Dr.
Bendele), a tolouidine blue stained slide containing both halves of the joint was comprehensively analyzed from test and control subjects. Approximate % of total loss of articular chondrocytes, loss of proteoglycan and loss of collagenous matrix were determined for each articular surface (medial tibial plateau (MTP), lateral tibial plateau (LTP), medial femoral condyle (MFC), and lateral femoral condyle (LFC). Chondrocyte loss was quantified by estimating the area of cartilage in which there were no apparently viable chondrocytes and proteoglycan loss was quantified by estimating differences in intensity of toluidine blue matrix staining. Loss of interstitial matrix was an indication of disruption and diminished type II collagen. Based on the mean % loss for the four surfaces in these parameters, a five point matrix score was utilized with the subchondral bone resorption, subchondral bone sclerosis and osteophyte scores to achieve a total joint score. […]
[…] steps, stained with toluidine blue (with a right and left halve per section), and analyzed for cartilage degeneration, proteoglycan loss, collagen damage, and osteophyte formation. Results were averaged across the 3 sections for an overall semi-quantitative score. Regional differences across the tibial plateau were taken into consideration by dividing each section into 3 zones delineated using an ocular micrometer (outside, middle, and inside). Scores were based on the percentage of area affected within the zone.
Cartilage degeneration in the tibia was scored on a five point scale for each zone, collagen damage across the medial tibial plateau was measured by total width for each grade damage. Cartilage degeneration in the tibia was scored none to severe (numerical values 0-5) for each zone (area defined by micrometer) using the following criteria: […]

[4] = tested on: SW982; assay: Synovial toxicity (CellTiter-Glo), with or without TNF-α
[5] = Comparison of in vitro screens: overlapping effective and nontoxic range;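 note: compares non-toxic ranges in synovial cells and chondrocytes with effective ranges against NFkB, MMP-13 and osteoclasts, giving their overlap as the predicted efficacy range in uM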
[6] = tested on: RAW 264.7 cells; assay: RANKL-mediated osteoclastogenesis / matrix resorption (Osteologic) assay; type: cell-based, murine
Description: RAW 264.7 cells (American Type Culture Collection [ATCC], Manassas, VA, USA), a murine monocytic cell line that differentiates in the presence of RANKL, was used for measurements of osteoclastogenesis and osteoclast activity. Cells were amplified on nonadherent culture substratum in high-glucose Dulbecco’s modified Eagle’s medium (DMEM) containing 10 % fetal bovine serum (FBS) and penicillin-streptomycin in a 37 °C, 5 % CO2, humidified incubator and were passaged by manual dissociation. […] Plates were subsequently rinsed, bleached, dried, and analyzed for matrix degradation using a Nikon COOLSCOPE (Nikon Instruments, Melville, NY, USA). Matrix resorption was quantified using EclipseNet (Nikon Instruments)/Visiopharm (Visiopharm, Hørsholm, Denmark) software (see Additional file 1).
In Vitro Osteoclastogenesis
Osteoclastogenic activity was measured using BD osteologic plates and quantitation of the degree of bone matrix digestion on the plate surface. Images from the BD Osteologic assay used to […]
left pane depicts an example of a control well after removal of cells from matrix. Pseudocoloring of matrix (blue) and pits (green) is shown in the far right pane. A transparent overlay of the two images is shown in the center.
Figure 5 - Measurement of drug effects on osteoclastogenesis and osteoclast activity.
Comparisons were made between RANKL treated control wells and wells treated with both RANKL and […]
Agents were initially tested either during differentiation or post differentiation in the bone assay […]
(e.g., Figure 2, Sulfazalazine). […]
indicated (*/**: p < 0.05/0.01, unpaired t-test versus RANKL control). […]

[7] = tested on: MMP-13; assay: MMP-13 ELISA on supernatants of TNF-α-treated chondrogenic pellets; type: cell-based, human

What does the source list for Cc1cnc(NC(=O)C2=C(O)c3ccccc3S(=O)(=O)N2C)s1 [Meloxicam]?
dRS, hours after dosing with significant difference ([1]; day 7): 1 h; dRS, hours after dosing with significant difference ([1]; day 14): 3 h; Non-toxic range (Chondrocyte) [2]: 0.125 to 8 M; Bone resorption percent, LFC ([3]; group mean, i.a. weekly): 0%; Bone resorption percent, LTP ([3]; group mean, i.a. weekly): 0%; Bone resorption percent, MFC ([3]; group mean, i.a. weekly): 15%; Bone resorption percent, MTP ([3]; group mean, i.a. weekly): 15%; Bone resorption percent, mean ([3]; group mean, i.a. weekly): 8%; Bone resorption score ([3]; group mean, i.a. weekly): 1.0; Cartilage matrix damage score ([3]; group mean, i.a. weekly): 1.0 and 1.0 ± 0.0; Mean of all cartilage loss ([3]; group mean, i.a. weekly): 9.7; Osteophyte measure ([3]; group mean, i.a. weekly): 146.7 µm; Osteophyte score ([3]; group mean, i.a. weekly): 0.7; Subchondral bone sclerosis ([3]; group mean, i.a. weekly): 0.3; Total joint score w/o matrix ([3]; group mean, i.a. weekly): 2.0; Total joint score with matrix ([3]; group mean, i.a. weekly): 3.0 and 3.0 ± 1.2; Decrease of total joint score vs vehicle controls ([3]; meloxicam 100 μg i.a.): 47%; Non-toxic range (Synovial) [4]: 0.25 to 16 µM; Non-toxic & predicted range of efficacy [5]: 16 to 32 µM; Overlapping effective and nontoxic range ([5]; inhibits with minimal or no toxicity to synovium or cartilage, overlapping range if effective in more than one assay): 16 to 32 µM; Effective range against Osteoclasts [6]: Not effective; Effective range against MMP-13 [7]: Not effective
